Measured values: patent US20100048411A1, “SUBSTRATE FOR THE GROWTH OF CULTURED CELLS IN THREE DIMENSIONS” (REINNERVATE LIMITED, priority 2006, published 2010)

How the values were obtained:
Type in all cases: cell-based, human
HepG2 cells [1] = assay: SEM and TEM morphology of HepG2 cells challenged with methotrexate
Procedure: Cells were seeded on 2-D and 3-D surfaces in triplicate and left to settle and adhere for 24 hours. The medium was then changed and replaced with medium containing different concentrations of MTX (no MTX (vehicle alone, control), 8 μM, 31 μM, and 125 μM). Cells were subsequently incubated for 1, 3, 7 or 10 days, after which cultures were sampled and assayed for cell number/viability and levels of albumin and transglutaminase were determined.
In preparation for SEM, cells grown on 2-D or 3-D substrates were fixed in 2% paraformaldehyde and 2.5% glutaraldehyde in Sorenson's phosphate buffer for 1 hour at room temperature. Samples were then rinsed in 0.1M phosphate buffer and immersed in 1% OsO4 (aq.) solution for 1 hour, then dehydrated in 50%, 70%, 95% and 100% ethanol for 5 minutes, four times for each respective ethanol change. Samples of fixed 2-D and 3-D cultures were then cut into smaller pieces (approximately 25 mm^2), mounted on specimen holders and dried from CO2 at 38° C. at 1200 psi. The samples were then sputter coated with a 7 nm layer of chromium and examined using a Hitachi S5200 SEM.
For TEM analysis, cells grown on 3-D substrates were fixed and treated as described above for SEM. However, subsequent to dehydration and being cut into small pieces, samples were embedded in resin (Araldite CY212, Agar Scientific) for 1 hour at 37° C. and then placed into pyramidal moulds at 60° C. overnight. For the preparation of cells grown on 2-D surfaces, cultures were fixed in 2% paraformaldehyde and 2.5% glutaraldehyde in Sorenson's phosphate buffer for 1 hour at room temperature. Cells were then scrapped from tissue culture plastic and pelleted at 15,000 rpm for 10 min. Pelleted cells were subsequently rinsed in 0.1M phosphate buffer and immersed in 1% OsO4 (aq.) solution for 1 hour, then dehydrated in 50%, 70%, 95% and 100% ethanol for 5 min, for times for each respective ethanol change. The dehydrated cell pellets were then soaked in resin (Araldite CY212) for 60 min at 37° C. […]

HepG2 cells [2] = assay: albumin secretion of HepG2 cells challenged with methotrexate
Procedure: (§1) The human hepatic carcinoma cell line, HepG2, was obtained from the American Type Culture Collection (ATCC). HepG2 cells were cultured at 37° C. in 5% CO2 in growth medium (Dulbecco's modified Eagle medium (D-MEM, Gibco/BRL) supplemented with 10% (v/v) fetal calf serum (FBS, Gibco/BRL), 100 μg.mL^−1 penicillin and 10 μg.mL^−1 streptomycin (Gibco/BRL)). Cells were passaged every 5-7 days. Confluent cultures of cells were washed with PBS, detached using trypsin/EDTA solution and cell number determined using a hemocytometer. Suspensions of HepG2 cells were then seeded at equal densities either directly into wells of a standard 6-welled plate (Nunc) or into modified well-inserts mounted with the polymer and located in wells of a 6-well plate. Cultures were maintained in growth medium which was changed every 3-4 days or as required.
(§2) Cells were seeded on 2-D and 3-D surfaces in triplicate and left to settle and adhere for 24 hours. […] Cells were subsequently incubated for 1, 3, 7 or 10 days, after which cultures were sampled and assayed for cell number/viability and levels of albumin and transglutaminase were determined.
The production of albumin is often used as an indicator of hepatocyte metabolic activity. Levels of albumin were determined using a commercially available kit (Bioassay systems) based on an established method that utilizes bromocresol green which forms a coloured complex specifically with albumin that is detectable at 620 nm. Known quantities of human albumin were used to establish the standard curve. Specific levels of albumin secretion were normalized to total protein levels (as determined by a standard Bradford assay).

HepG2 cells [3] = assay: transglutaminase assay of HepG2 cells challenged with methotrexate
Procedure: as §1, §2
The leakage of this enzyme is often used as a marker for in vitro toxicity testing and its presence indicates damage to cell membranes. […] The level of transglutaminase was analysed by means of a quantitative enzymatic assay (Sigma, UK) as previously described.

HepG2 cells [4] = assay: MTT viable cell number of HepG2 cells challenged with methotrexate on 2-D and 3-D substrates
Procedure: as §1
The number of viable cells was determined using a commercially available calorimetric assay (Promega) based on Mosmann's original method for measuring cell activity involving the conversion of a tetrazolium salt into a blue formazan product detectable by a spectrophotometer (570 nm). The assay was performed according to the manufacturer's instructions on HepG2 cells cultured on 2-D and 3-D substrates for various periods under alternative growth conditions.
as §2

Question: Which results are given for `CN(Cc1cnc2nc(N)nc(N)c2n1)c1ccc(C(=O)N[C@@H](CCC(=O)O)C(=O)O)cc1` [MTX, methotrexate]?
Answer: ultra-structure (TEM) (HepG2 cells [1]; 2-D cultures, 8 μM MTX): areas of cellular necrosis were also evident; ultra-structure (TEM) (HepG2 cells [1]; 2-D cultures, high levels of MTX): most cells became necrotic; ultra-structure (TEM) (HepG2 cells [1]; 3-D culture, 125 μM MTX): the nuclear membrane had an irregular morphology; albumin secretion (metabolic activity) (HepG2 cells [2]; cells cultured on scaffolds (3-D), 15.6 μM MTX): did begin to reduce albumin secretion; albumin secretion (metabolic activity) (HepG2 cells [2]; cells grown in 2-D, 8 μM MTX): sensitive; albumin secretion (metabolic activity) (HepG2 cells [2]; cells grown in 3-D, 8 μM MTX): did not significantly influence albumin secretion; transglutaminase levels (HepG2 cells [3]; 2-D cultures, 31 μM MTX and above, versus 3-D culture): significantly higher levels of transglutaminase; transglutaminase levels (HepG2 cells [3]; 3-D cultures, increasing concentration of MTX): did not cause a significant increase in transglutaminase levels; cell viability (MTT absorbance) (HepG2 cells [4]; 3-D cultures, 62 μM MTX, compared to control values): significant decrease in absorbance levels; cell viability (MTT absorbance) (HepG2 cells [4]; HepG2 monolayers (2-D), 15 μM MTX, after 24 hours): gradual increase of absorbance; cell viability (MTT absorbance) (HepG2 cells [4]; cells on 2-D surfaces, increasing MTX concentrations): visibly reduced; cell viability (MTT absorbance) (HepG2 cells [4]; monolayers (2-D), 7 days, 125 μM MTX): sharp decrease in absorbance levels
